These results are taken from publication PMC6704710, “Preclinical evaluation of 3D185, a novel potent inhibitor of FGFR1/2/3 and CSF-1R, in FGFR-dependent and macrophage-dominant cancer models” (Journal of Experimental & Clinical Cancer Research : CR, 2019).

Test [1] relates to MC38 colorectal adenocarcinoma model. Nature of the test: In vivo antitumor activity, MC38 model. The settings on record: oral once daily 23 days. Set-up: species or system C57BL/6 mice. On the procedure: For the MC38 xenograft model, 6-week-old C57BL/6 mice were housed and maintained under specific pathogen-free conditions. Tumor cells (2 × 10^6 in 200 μL) were injected subcutaneously (s.c.) into the right flanks of C57BL/6 mice. […] The tumors were measured twice per week using a microcaliper. Tumor volume (TV) was calculated as follows: TV = (length × width^2)/2. In addition, the individual relative tumor volume (RTV) was calculated as follows: RTV = Vt / V0, where Vt is the volume on a particular day and V0 is the volume at the beginning of the treatment. The RTV is shown on the indicated days as the […] ± SEM for the indicated groups of mice.

Another test deals with T1, Snk(h) (Homo sapiens, UniProt Q9NYY3).
T1 construct: purchased Eurofins (KinaseProfiler)
T1 sequence (Q9NYY3 whole entry): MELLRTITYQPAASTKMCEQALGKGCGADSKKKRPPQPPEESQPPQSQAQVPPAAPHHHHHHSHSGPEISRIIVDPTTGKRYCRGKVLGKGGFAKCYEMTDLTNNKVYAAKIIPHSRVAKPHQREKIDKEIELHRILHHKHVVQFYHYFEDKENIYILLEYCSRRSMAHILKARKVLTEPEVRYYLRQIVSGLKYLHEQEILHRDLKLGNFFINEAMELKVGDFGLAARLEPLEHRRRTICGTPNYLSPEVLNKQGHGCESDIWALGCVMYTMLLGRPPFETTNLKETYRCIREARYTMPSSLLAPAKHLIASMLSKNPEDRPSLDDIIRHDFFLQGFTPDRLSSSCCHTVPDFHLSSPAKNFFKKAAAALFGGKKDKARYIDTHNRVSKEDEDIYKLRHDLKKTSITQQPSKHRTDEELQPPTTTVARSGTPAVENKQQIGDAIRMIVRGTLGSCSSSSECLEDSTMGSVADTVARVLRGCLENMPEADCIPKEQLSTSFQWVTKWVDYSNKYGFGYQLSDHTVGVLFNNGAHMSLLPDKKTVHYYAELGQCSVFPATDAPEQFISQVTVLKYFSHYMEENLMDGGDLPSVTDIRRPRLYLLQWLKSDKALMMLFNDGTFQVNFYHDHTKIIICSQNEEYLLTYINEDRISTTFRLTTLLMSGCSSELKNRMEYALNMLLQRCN
Nature of the test: Eurofins kinase panel. The class given is biochemical. As to conditions: read-out: Inhibition rate (%).

The target in the next test is T2, DMPK(h) (Homo sapiens, UniProt Q09013).
T2 construct: purchased Eurofins (KinaseProfiler)
T2 sequence (Q09013 1-629): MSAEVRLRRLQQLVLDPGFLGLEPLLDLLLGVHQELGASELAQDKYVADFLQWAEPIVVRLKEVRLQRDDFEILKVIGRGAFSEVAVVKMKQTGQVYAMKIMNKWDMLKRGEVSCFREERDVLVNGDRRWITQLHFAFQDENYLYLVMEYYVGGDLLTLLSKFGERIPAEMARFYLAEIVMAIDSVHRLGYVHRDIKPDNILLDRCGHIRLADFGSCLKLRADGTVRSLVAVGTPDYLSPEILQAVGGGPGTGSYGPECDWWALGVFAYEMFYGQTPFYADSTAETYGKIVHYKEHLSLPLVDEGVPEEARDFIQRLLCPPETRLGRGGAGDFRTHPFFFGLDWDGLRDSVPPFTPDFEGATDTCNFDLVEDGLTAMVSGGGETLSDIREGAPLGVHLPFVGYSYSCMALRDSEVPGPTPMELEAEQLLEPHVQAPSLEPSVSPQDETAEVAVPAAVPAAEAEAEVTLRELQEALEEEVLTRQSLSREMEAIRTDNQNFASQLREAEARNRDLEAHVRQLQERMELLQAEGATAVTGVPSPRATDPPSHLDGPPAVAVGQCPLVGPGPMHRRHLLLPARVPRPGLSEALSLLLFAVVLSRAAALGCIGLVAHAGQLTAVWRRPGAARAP
Nature of the test: Eurofins kinase panel. The class given is biochemical. As to conditions: read-out: Inhibition rate (%).

The target in the next test is FGFR2(N549H)(h) (Homo sapiens, UniProt P21802, N549H). Put plainly: Eurofins kinase panel. The class given is biochemical.
FGFR2(N549H)(h), sequence (P21802 22-821 N549H): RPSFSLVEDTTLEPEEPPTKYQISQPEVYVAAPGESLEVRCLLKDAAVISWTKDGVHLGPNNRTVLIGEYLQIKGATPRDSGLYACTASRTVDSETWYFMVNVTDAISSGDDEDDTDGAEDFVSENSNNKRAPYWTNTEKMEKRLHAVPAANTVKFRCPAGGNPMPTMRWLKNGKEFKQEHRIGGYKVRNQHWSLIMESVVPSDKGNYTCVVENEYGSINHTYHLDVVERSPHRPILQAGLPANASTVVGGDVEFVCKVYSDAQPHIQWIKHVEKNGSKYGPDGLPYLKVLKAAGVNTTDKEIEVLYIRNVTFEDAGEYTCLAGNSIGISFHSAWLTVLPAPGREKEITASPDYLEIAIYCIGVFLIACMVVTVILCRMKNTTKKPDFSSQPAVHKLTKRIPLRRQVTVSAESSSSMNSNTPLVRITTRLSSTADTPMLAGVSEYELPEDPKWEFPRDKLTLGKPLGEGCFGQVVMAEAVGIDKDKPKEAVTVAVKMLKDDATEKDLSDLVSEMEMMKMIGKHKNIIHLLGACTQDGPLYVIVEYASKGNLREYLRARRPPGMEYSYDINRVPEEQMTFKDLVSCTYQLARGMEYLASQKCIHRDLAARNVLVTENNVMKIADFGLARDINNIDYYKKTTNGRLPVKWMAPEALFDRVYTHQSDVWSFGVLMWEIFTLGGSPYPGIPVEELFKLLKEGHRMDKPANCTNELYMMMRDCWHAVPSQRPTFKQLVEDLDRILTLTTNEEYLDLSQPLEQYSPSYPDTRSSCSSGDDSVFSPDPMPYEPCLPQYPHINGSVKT
For a further test, the target named is T3, PhKγ2(h) (Homo sapiens, UniProt P15735).
T3 construct: purchased Eurofins (KinaseProfiler)
T3 sequence (P15735 1-406): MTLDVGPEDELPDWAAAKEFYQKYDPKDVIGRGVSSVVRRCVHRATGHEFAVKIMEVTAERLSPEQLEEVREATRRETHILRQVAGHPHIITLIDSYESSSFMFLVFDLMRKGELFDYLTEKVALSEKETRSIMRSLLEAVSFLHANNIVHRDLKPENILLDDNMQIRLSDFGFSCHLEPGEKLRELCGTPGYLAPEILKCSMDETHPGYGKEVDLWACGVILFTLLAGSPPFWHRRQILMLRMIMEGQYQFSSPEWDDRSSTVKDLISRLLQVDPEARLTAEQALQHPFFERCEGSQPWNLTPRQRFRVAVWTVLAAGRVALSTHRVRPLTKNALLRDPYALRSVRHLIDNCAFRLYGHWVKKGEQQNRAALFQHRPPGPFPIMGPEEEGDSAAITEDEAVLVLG
Put plainly: Eurofins kinase panel. The settings on record: read-out: Inhibition rate (%). Format: biochemical.

Another test concerns the target T4, ICK(h) (Homo sapiens, UniProt Q9UPZ9).
T4 construct: purchased Eurofins (KinaseProfiler)
T4 sequence (Q9UPZ9 1-632): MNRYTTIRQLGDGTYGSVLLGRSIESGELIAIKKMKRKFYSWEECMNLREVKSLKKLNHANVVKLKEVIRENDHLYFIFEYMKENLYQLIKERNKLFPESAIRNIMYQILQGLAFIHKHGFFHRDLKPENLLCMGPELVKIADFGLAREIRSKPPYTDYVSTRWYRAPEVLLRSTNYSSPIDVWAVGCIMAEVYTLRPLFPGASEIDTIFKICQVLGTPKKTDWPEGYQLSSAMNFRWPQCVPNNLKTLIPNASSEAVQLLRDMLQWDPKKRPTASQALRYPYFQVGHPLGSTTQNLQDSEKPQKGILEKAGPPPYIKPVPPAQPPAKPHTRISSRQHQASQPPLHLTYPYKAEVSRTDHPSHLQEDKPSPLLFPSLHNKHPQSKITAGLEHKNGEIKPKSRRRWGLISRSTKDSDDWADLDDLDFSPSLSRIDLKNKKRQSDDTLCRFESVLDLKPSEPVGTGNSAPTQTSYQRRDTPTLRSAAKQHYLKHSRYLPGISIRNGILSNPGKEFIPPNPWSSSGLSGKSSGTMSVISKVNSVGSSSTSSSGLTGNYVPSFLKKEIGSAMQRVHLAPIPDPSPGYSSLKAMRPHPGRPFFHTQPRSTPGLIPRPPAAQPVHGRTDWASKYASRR
Put plainly: Eurofins kinase panel. Format: biochemical. The settings on record: read-out: Inhibition rate (%).

As for `COc1cc(OC)c(Cl)c(-c2ccc3c(NC(=O)c4ccc(N5CCNC(C)(C)C5)cc4)n[nH]c3n2)c1Cl` [3D185], in test [1], the “effect on MC38 tumor growth” value was “delayed tumor growth”. For the same molecule, the inhibition (commonly the drop in the measured response relative to a control, in per cent) at 0.01 µM on Snk(h) (10 nM) is 0%; on DMPK(h) (10 nM), 2%; at FGFR2(N549H)(h) (read-out: Inhibition rate (%)), 96%; at PhKγ2(h) (10 nM) it was 12%; at ICK(h) (10 nM), -10%. The inhibition at 0.1 µM on Snk(h) (100 nM) was -2%; on DMPK(h) (100 nM) it was 3%; at FGFR2(N549H)(h) (read-out: Inhibition rate (%)), 98%; on PhKγ2(h) (100 nM), -8%; at ICK(h) (100 nM), -5%. In addition, the inhibition at 1 µM on Snk(h) (1000 nM) was 10%; at DMPK(h) (1000 nM) it was 2%; on FGFR2(N549H)(h) (read-out: Inhibition rate (%)), 100%; at PhKγ2(h) (1000 nM), -3%; on ICK(h) (1000 nM) it was 4%. The IC50 (commonly the midpoint of a concentration-inhibition curve) at FGFR2(N549H)(h) (estimated from 372-kinase panel) was less than 10 nM.
